# Laboratory results as given in patent US12510524B2, “Compositions containing cannabinoid analog conjugates and methods of use” (priority 2014, dated 2025).
# Values joined by “and” are separate entries in the source; they are usually repeats but may differ in a detail not shown here. Equal values may be shown once.
# Tests used:
# Format in all cases: cell-based
# DLBCL cancer cell lines = assay: MTS cell viability assay, DLBCL cell lines as a group; details: MTS; for effect on the viability of DLBCL cancer cell lines: EJ, U2932, CJ and LY19, 72 h incubation, FIGS. 13-16
# Method: The effects of SR141716 and VYR206 were analyzed. MTS assays for cell viability (72 h incubation) were performed on diffuse large B-cell lymphoma (DLBCL) cells—LR, MS, RC and DOHH2 (FIGS. 18A-18D) and mantle cell lymphoma (MCL) cells—Jeko, Mino, Rec-1 and JMP1 (FIGS. 19A-19D).
# [1] = system: 16 DLBCL and 8 MCL cell lines; assay: High throughput screening of cell viability, all cell lines; details: all cells tested; concentration range 0-5 μM; 72-hour incubation
# Method: (§1) High throughput screening ([…]) assessment of cell viability in 16 DLBCL (FIGS. 20A and 20B) and 8 MCL (FIG. 20C) cell lines were assessed following treatment a 72-hour incubation of the cell lines with cannabidiol, which was obtained as CBD in a coconut oil extract. Cell viability, 90% of the all cells tested, remained viable in a concentration range of 0-5 μM CBD. Complete cell death was obtained at 25 μM CBD concentration only for two cancer cell lines, HT and EJ (FIG. 20B); 50 μM CBD concentration gave a complete cell death viability in seven cell lines MZ, HF, HB, CJ, MS, Toledo and EJ (FIGS. 20A and 20B).
# HT cancer cell line = assay: High throughput screening of cell viability, HT; details: 72-hour incubation
# Method: as §1
# EJ cancer cell line = assay: High throughput screening of cell viability, EJ; details: 72-hour incubation
# Method: as §1
# MZ cell line = assay: High throughput screening of cell viability, MZ; details: 72-hour incubation
# Method: as §1
# HF cell line = assay: High throughput screening of cell viability, HF; details: 72-hour incubation
# Method: as §1
# HB cell line = assay: High throughput screening of cell viability, HB; details: 72-hour incubation
# Method: as §1
# CJ cell line = assay: High throughput screening of cell viability, CJ; details: 72-hour incubation
# Method: as §1
# MS cell line = assay: High throughput screening of cell viability, MS; details: 72-hour incubation
# Method: as §1
# Toledo cell line = assay: High throughput screening of cell viability, Toledo; details: 72-hour incubation
# Method: as §1
# LP cell line = assay: High throughput screening of cell viability, LP; details: 72-hour incubation, read-out: concentration range at which 50% cell viability was reached
# Method: as §1
# MCA cell line = assay: High throughput screening of cell viability, MCA; details: 72-hour incubation, read-out: concentration range at which 50% cell viability was reached
# Method: as §1
# MT cell line = assay: High throughput screening of cell viability, MT; details: 72-hour incubation, read-out: concentration range at which 50% cell viability was reached
# Method: as §1
# Cancer cell line DOHH2 = assay: High throughput screening of cell viability, DOHH2; details: lower concentration (0-25 μM)
# Method: as §1
# [2] = system: mantle cell lymphoma cancer cells (Mino, Jeko, SP53, Maver-1Z138, JMP-1, Rec-1 and PF-1); assay: High throughput screening of cell viability, MCL cell lines; details: concentration range from 15 μM to 25 μM; FIG. 20C
# Method: as §1
# CB2 receptor expression = assay: Blot analysis of CB2 expression in DLBCL and MCL cell lines; details: FIGS. 21B and 21C
# Method: The effect of different amounts of combinations of VYR206 and CBD on various DLBCL and MCL cell lines were evaluated by immunoblot analysis. Immunoblot analysis of cell lysates from various DLBCL and MCL cell lines was performed to show effects on expression of CBi and CB2 receptors with the expression of β-actin as the control for sample loading (FIGS. 21A-21D), with each cell line identified by respective initials.
# [3] = system: DLBCL (RC) and MCL (Mino) cancer cell lines; assay: MTS cell viability assay, CBD alone and in combination with chemotherapeutics; details: at the given amounts, 72 h incubation
# Method: The formazan dye is quantified by measuring the absorbance at 490-500 nm.
# Cell viability assays (MTS) were performed to determine the viability of DLBCL (RC) and MCL (Mino) cancer cell lines in vitro (72 hour-incubation) in the presence of CB2-agonist—CBD alone and in combination with ibrutinib. Cell viability assays (MTS) were performed to determine the viability of DLBCL (RC) and MCL (Mino) cancer cell lines in vitro (72 h incubation) in the presence of CBD alone and in combination with zanubrutinib (BGB). Cell viability assays (MTS) were performed to determine the viability of DLBCL (RC) and MCL (Mino) cancer cell lines in vitro (72 h incubation) in the presence of CBD alone and in combination with carfilzomib (CFZ). Cell viability assays (MTS) were performed to determine the viability of DLBCL (RC) and MCL (Mino) cancer cell lines in vitro (72 h incubation) in the presence CBD alone and in combination with tumorex (TMX).
# cleaved PARP in RC cells = assay: Immunoblot of apoptosis induction in RC cells; details: 24 hrs
# [4] = system: cleaved caspase 3 and cleaved PARP in BJAB cells; assay: Western analysis of apoptosis induction in BJAB cells; details: 24 hrs
# Method: No activation of apoptosis in untreated cells (control not shown). […] At 12.5 μM CBD, there was significant apoptosis induction in cleaved PARP expression. The effect of CBD on both cleaved caspase 3 (FIG. 27C) and cleaved PARP expression (FIG. 27D) was analyzed using Western analysis. Expression of the β-actin (FIG. 27E) was used as a control for equal loading.
# [5] = read-out: concentration range at which 50% cell viability was reached
smiles,measurement,setting,value
CN1CCCCC1Cn1cc(C(=O)c2cc([N+](=O)[O-])ccc2I)c2ccccc21 (centres unmarked) [AM 1241],effect on the viability of DLBCL cancer cell lines,DLBCL cancer cell lines,significant effect
"C=C(C)[C@@H]1CCC(C)=C[C@H]1c1c(O)cc(CCCCC)cc1O [CBD, cannabidiol]",viability response compared with VYR206,"DLBCL cancer cell lines; LY19 and LR, alone and in combination, 72 h",generally the same response as VYR206
same,cell viability,[1],90%
same,concentration giving complete cell death,HT cancer cell line,25 µM
same,concentration giving complete cell death,EJ cancer cell line,50 µM and 25 µM
same,IC50,EJ cancer cell line; [5],15 to 20 µM
same,concentration giving complete cell death,MZ cell line,50 µM
same,IC50,MZ cell line; [5],15 to 20 µM
same,concentration giving complete cell death,HF cell line,50 µM
same,concentration giving complete cell death,HB cell line,50 µM
same,IC50,HB cell line; [5],15 to 20 µM
same,concentration giving complete cell death,CJ cell line,50 µM
same,IC50,CJ cell line; [5],15 to 20 µM
same,concentration giving complete cell death,MS cell line,50 µM
same,concentration giving complete cell death,Toledo cell line,50 µM
same,IC50,LP cell line,15 to 20 µM
same,IC50,MCA cell line,15 to 20 µM
same,IC50,MT cell line,15 to 20 µM
same,susceptibility,Cancer cell line DOHH2,less susceptible
same,sensitivity of MCL cancer cells,[2],less sensitive
same,CB2 expression,CB2 receptor expression,modulation
same,"viability, agents individually",[3],modest reduction in viability
same,concentration with significant apoptosis induction in cleaved PARP expression,cleaved PARP in RC cells,12.5 µM
same,concentration with significant apoptosis induction in cleaved PARP expression,[4],12.5 µM
same,cleaved caspases 3 and cleaved PARP,[4]; increasing concentration,concentration-dependent increase
"CCNC1(C(N)=O)CCN(c2ncnc3c2nc(-c2ccccc2Cl)n3-c2ccc(Cl)cc2)CC1 [CP945,598]",effect on the viability of DLBCL cancer cell lines,DLBCL cancer cell lines,significant results depending on the specific cell line
